In US12479843B2, “Spiro ring-containing quinazoline compounds” (WIGEN BIOMEDICINE TECHNOLOGY (SHANGHAI) CO., LTD., priority 2019, dated 2025):

How the values were obtained:
pERK level in H358 cells = assay: pERK and ERK protein content assay in H358 cells (ELISA); assay type: cell-based; details: Homo sapiens, NCI-H358, compound 1 μM, 24 h, pERK/ERK ratio compared with DMSO group, read-out: Inhibition rate (%) of pERK level
In short: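 H358 cells grown one day, then treated 24 h with compound at 1 μM. pERK and ERK in lysates measured by ELISA; pERK/ERK ratio expressed as percent inhibition versus DMSO.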

H358 cells = assay: Antiproliferative activity against H358 cells (Cell Titer Glow, ultra-low attachment plate); assay type: cell-based; details: Homo sapiens, NCI-H358, 72 h, 96-well ultra-low attachment plate, three days after addition of compound, Cell Titer Glow
Procedure: 2500 H358 cells were seeded in a 96-well ultra-low attachment plate (corning, 7007). After one day of growth, a serially diluted compound (a maximum concentration of 5 μM, 5-fold dilution, a total of five doses) was added. Three days after the addition of the compound, Cell Titer Glow (Promega, G9681) was added to evaluate pellet growth, and the IC50 value was calculated.

SMILES	IC50 (H358 cells) [nM]	inhibition at 1 µM (pERK level in H358 cells) [%]
C=C(F)C(=O)N1CC2(CCN(c3nc(OC4CCC5(CC4)CN(C)C5)nc4c(OCC(F)(F)F)c(-c5c(C)ccc6[nH]ncc56)c(C5CC5)cc34)CC2)C1 [Compound 136]	300 to 1000	50 to 90
C=CC(=O)N1CC2(CCN(c3nc(N4CC5(CC(N6CCCC6)C5)C4)nc4c(OCC(F)(F)F)c(-c5c(C)ccc6[nH]ncc56)c(C5CC5)cc34)CC2)C1 [Compound 289]	< 300	> 90
C=C(F)C(=O)N1CC2(CCN(c3nc(OC4CCN(CCOC)CC4)nc4c(OCC(F)(F)F)c(-c5c(F)cccc5F)c(C5CC5)cc34)CC2)C1 [Compound 54]	< 300	> 90
C=CC(=O)N1CC2(CCN(c3nc(N4CC[C@H](N5CCCC5)C4)nc4c(OCC(F)(F)F)c(-c5c(C)ccc6[nH]ncc56)c(C5CC5)cc34)CC2)C1 [Compound 183]	< 300	> 90
C=CC(=O)N1CC2(CCN(c3nc(N4CC[C@H](N5CC[C@@H](F)C5)C4)nc4c(OCC(F)(F)F)c(-c5c(C)ccc6[nH]ncc56)c(C5CC5)cc34)CC2)C1 [Compound 193]	< 300	> 90
C=CC(=O)N1CC2(CCN(c3nc(N4CC5(CCN(CC6CC6)CC5)C4)nc4c(OCC(F)(F)F)c(-c5c(C)ccc6[nH]ncc56)c(C5CC5)cc34)CC2)C1 [Compound 83]	< 300	> 90
C=C(F)C(=O)N1CC2(CCN(c3nc(OC4CC5(CCN(C(C)CC)CC5)C4)nc4c(OCC(F)(F)F)c(-c5c(C)ccc6[nH]ncc56)c(C5CC5)cc34)CC2)C1 (stereo not drawn) [Compound 134]	< 300	> 90
C=CC(=O)N1CC2(CCN(c3nc(OC4CN5CCC4CC5)nc4c(OCC(F)(F)F)c(-c5c(C)ccc6[nH]ncc56)c(C5CC5)cc34)CC2)C1 (stereo not drawn) [Compound 150]	< 300	> 90
C=CC(=O)N1CC2(CCN(c3nc(OC4CCN(CCOC)CC4)nc4c(OCC(F)(F)F)c(-c5c(O)ccc6ccccc56)c(C5CC5)cc34)CC2)C1 [Compound 59]	< 300	> 90
C=C(F)C(=O)N1CC2(CCN(c3nc(N4CCC(N5CCOCC5)CC4)nc4c(OCC(F)(F)F)c(-c5c(C)ccc6[nH]ncc56)c(C5CC5)cc34)CC2)C1 [Compound 149]	300 to 1000	50 to 90
C=CC(=O)N1CC2(CCN(c3nc(N4CC(N5C[C@@H](O)C[C@H]5C)C4)nc4c(OCC(F)(F)F)c(-c5c(C)ccc6[nH]ncc56)c(C5CC5)cc34)CC2)C1 [Compound 259]	< 300	> 90
C=CC(=O)N1CC2(CCN(c3nc(N4CC[C@H](N5CCCCC5)C4)nc4c(OCC(F)(F)F)c(-c5c(C)ccc6[nH]ncc56)c(C5CC5)cc34)CC2)C1 [Compound 207]	< 300	> 90
C=CC(=O)N1CC2(CCN(c3nc(N4CC(N5CC[C@H](C)C5)C4)nc4c(OCC(F)F)c(-c5c(C)ccc6[nH]ncc56)c(C5CC5)cc34)CC2)C1 [Compound 333]	< 300	> 90
C=CC(=O)N1CC2(CCN(c3nc(N4CC(N5C6CCC5CC6)C4)nc4c(OCC(F)(F)F)c(-c5c(C)c(F)cc6[nH]ncc56)c(C5CC5)cc34)CC2)C1 [Compound 329]	< 300	> 90
C=CC(=O)N1CC2(CCN(c3nc(N4CC5(CCN(C6CC6)CC5)C4)nc4c(OCC(F)(F)F)c(-c5c(C)ccc6[nH]ncc56)c(C5CC5)cc34)CC2)C1 [Compound 79]	300 to 1000	50 to 90
C=CC(=O)N1CC2(CCN(c3nc(OC4CCN(CCOC)CC4)nc4c(OCC(F)(F)F)c(-c5c(N)cccc5F)c(C5CC5)cc34)CC2)C1 [Compound 47]	< 300	> 90
C=C(F)C(=O)N1CC2(CCN(c3nc(N4CC5(CCN(C6CC6)CC5)C4)nc4c(OCC(F)(F)F)c(-c5c(C)ccc6[nH]ncc56)c(C5CC5)cc34)CC2)C1 [Compound 80]	300 to 1000	50 to 90
C=CC(=O)N1CC2(CCN(c3nc(N4CC(N5CCC5)C4)nc4c(OCC(F)(F)F)c(-c5c(C)c(C)cc6[nH]ncc56)c(C=C)cc34)CC2)C1 [Compound 221]	< 300	> 90
C=CC(=O)N1CC2(CCN(c3nc(N4CC(N5CCC(C)(C)CC5)C4)nc4c(OCC(F)(F)F)c(-c5c(C)ccc6[nH]ncc56)c(C5CC5)cc34)CC2)C1 [Compound 269]	< 300	> 90

Now from value to molecule, other results behind:

IC50 (H358 cells) [nM]	SMILES	inhibition at 1 µM (pERK level in H358 cells) [%]
< 300	C=CC(=O)N1CC2(CCN(c3nc(N4CC(N5CC[C@@H](C)C5)C4)nc4c(OCC(F)(F)F)c(-c5c(C)ccc6[nH]ncc56)c(C5CC5)cc34)CC2)C1 [Compound 248]	> 90
< 300	C=CC(=O)N1CC2(CCN(c3nc(N4CC(N5CC(OC)C5)C4)nc4c(OCC(F)(F)F)c(-c5c(C)ccc6[nH]ncc56)c(C5CC5)cc34)CC2)C1 [Compound 144]	> 90
300 to 1000	C=CC(=O)N1CC2(CCN(c3nc(N4CC5(CC(OC)C5)C4)nc4c(OCC(F)(F)F)c(-c5c(C)ccc6[nH]ncc56)c(C5CC5)cc34)CC2)C1 [Compound 283]	50 to 90
300 to 1000	C=CC(=O)N1CC2(CCN(c3nc(N4CC(N5CC(C#N)C5)C4)nc4c(OCC(F)(F)F)c(-c5c(C)ccc6[nH]ncc56)c(C5CC5)cc34)CC2)C1 [Compound 238]	> 90
< 300	C=CC(=O)N1CC2(CCN(c3nc(OC[C@@H]4COCCN4CCOC)nc4c(OCC(F)(F)F)c(-c5c(C)ccc6[nH]ncc56)c(C5CC5)cc34)CC2)C1 [Compound 117]	> 90
300 to 1000	C=C(F)C(=O)N1CC2(CCN(c3nc(OC4CC5CC4CN5CCOC)nc4c(OCC(F)(F)F)c(-c5c(C)ccc6[nH]ncc56)c(C5CC5)cc34)CC2)C1 (stereo not drawn) [Compound 122]	50 to 90
300 to 1000	C=CC(=O)N1CC2(CCN(c3nc(N4CC5(CSC5)C4)nc4c(OCC(F)(F)F)c(-c5c(C)ccc6[nH]ncc56)c(C5CC5)cc34)CC2)C1 [Compound 304]	50 to 90
< 300	C=CC(=O)N1CC2(CCN(c3nc(N4CC(N5CC[C@H](OC)C5)C4)nc4c(OCC(F)(F)F)c(-c5c(C)ccc6[nH]ncc56)c(C5CC5)cc34)CC2)C1 [Compound 174]	> 90
300 to 1000	C=C(F)C(=O)N1CC2(CCN(c3nc(O[C@H]4CCN(C5COC5)C4)nc4c(OCC(F)(F)F)c(-c5c(C)ccc6[nH]ncc56)c(C5CC5)cc34)CC2)C1 [Compound 66]	50 to 90
300 to 1000	C#Cc1cc2c(N3CCC4(CC3)CN(C(=O)C=C)C4)nc(OC3CCN(CCOC)CC3)nc2c(OCC(F)(F)F)c1-c1c(C)ccc2[nH]ncc12 [Compound 16]	50 to 90
< 300	C=CC(=O)N1CC2(CCN(c3nc(N4CC[C@H](N(C)C)C4)nc4c(OCC(F)(F)F)c(-c5c(C)ccc6[nH]ncc56)c(C5CC5)cc34)CC2)C1 [Compound 185]	> 90
< 300	C=CC(=O)N1CC2(CCN(c3nc(N4CC[C@@H](N5CC(C)C5)C4)nc4c(OCC(F)(F)F)c(-c5c(C)ccc6[nH]ncc56)c(C5CC5)cc34)CC2)C1 [Compound 297]	> 90
< 300	C=CC(=O)N1CC2(CCN(c3nc(N4CC5(C4)CS(=O)(=O)C5)nc4c(OCC(F)(F)F)c(-c5c(C)ccc6[nH]ncc56)c(C5CC5)cc34)CC2)C1 [Compound 306]	> 90
< 300	C=CC(=O)N1CC2(CCN(c3nc(OC4CCN(CCOC)CC4)nc4c(OCC(F)(F)F)c(-c5c(C)ccc6[nH]ncc56)c(C(C)C)cc34)CC2)C1 [Compound 15]	> 90
< 300	C=CC(=O)N1CC2(CCN(c3nc(N4CC5(C4)[C@@H](OC)CCN5C)nc4c(OCC(F)(F)F)c(-c5c(C)ccc6[nH]ncc56)c(C5CC5)cc34)CC2)C1 [Compound 275]	> 90
< 300	C=C(F)C(=O)N1CC2(CCN(c3nc(OC4CC5(C4)CN(CCOC)C5)nc4c(OCC(F)(F)F)c(-c5c(C)ccc6[nH]ncc56)c(C5CC5)cc34)CC2)C1 [Compound 126]	> 90
< 300	C=CC(=O)N1CC2(CCN(c3nc(N4CC5(C4)CN(C4COC4)C5)nc4c(OCC(F)(F)F)c(-c5c(C)ccc6[nH]ncc56)c(C5CC5)cc34)CC2)C1 [Compound 158]	> 90
< 300	C=CC(=O)N1CC2(CCN(c3nc(OC4CC5(C4)CN(C4COC4)C5)nc4c(OCC(F)(F)F)c(-c5c(C)ccc6[nH]ncc56)c(C5CC5)cc34)CC2)C1 [Compound 127]	> 90
< 300	C=CC(=O)N1CC2(CCN(c3nc(O[C@H]4CCS(=O)(=O)C[C@@H]4N(C)C)nc4c(OCC(F)(F)F)c(-c5c(C)ccc6[nH]ncc56)c(C5CC5)cc34)CC2)C1 [Compound 319]	> 90
< 300	C=C(C)C(=O)N1CC2(CCN(c3nc(OC4CCN(CCOC)CC4)nc4c(OCC(F)(F)F)c(-c5c(C)ccc6[nH]ncc56)c(C5CC5)cc34)CC2)C1 [Compound 17]	> 90
< 300	C=CC(=O)N1CC2(CCN(c3nc(OC4CN(CCOC)C4)nc4c(OCC(F)(F)F)c(-c5c(C)ccc6[nH]ncc56)c(C5CC5)cc34)CC2)C1 [Compound 113]	> 90
300 to 1000	C=CC(=O)N1CCC2(CC1)CN(c1nc(OC3CCN(CCOC)CC3)nc3c(OCC(F)(F)F)c(-c4c(C)ccc5[nH]ncc45)c(C4CC4)cc13)C2 [Compound 27]	50 to 90
< 300	C=CC(=O)N1CC2(CCN(c3nc(N4CC[C@@H](N5CC[C@@H](C)C5)C4)nc4c(OCC(F)(F)F)c(-c5c(C)ccc6[nH]ncc56)c(C5CC5)cc34)CC2)C1 [Compound 301]	> 90
